Measurements reported in PubChem BioAssay (NCI).
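Following 48 hours of exposure in 96-well plates, responses at five concentrations were used to interpolate endpoints linearly. The concentration for 50% growth inhibition is given as GI50. TGI is the concentration that stops growth completely.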

What was measured:
Assay in all cases: inhibition of tumour cell growth, NCI panel, 48 h
SNB-75 CNS = test system: SNB-75 CNS
HT29 colon = test system: HT29 colon
HCC-2998 colon = test system: HCC-2998 colon
K-562 leukemia = test system: K-562 leukemia
OVCAR-8 ovarian = test system: OVCAR-8 ovarian
MCF7 breast = test system: MCF7 breast
SK-MEL-28 melanoma = test system: SK-MEL-28 melanoma
CCRF-CEM leukemia = test system: CCRF-CEM leukemia
A498 renal = test system: A498 renal
UO-31 renal = test system: UO-31 renal

SMILES	GI50 (SNB-75 CNS)	TGI (SNB-75 CNS)	GI50 (HT29 colon)	TGI (HT29 colon)	GI50 (HCC-2998 colon)	TGI (HCC-2998 colon)	GI50 (K-562 leukemia)	TGI (K-562 leukemia)	GI50 (OVCAR-8 ovarian)	TGI (OVCAR-8 ovarian)	GI50 (MCF7 breast)	TGI (MCF7 breast)	GI50 (SK-MEL-28 melanoma)	TGI (SK-MEL-28 melanoma)	GI50 (CCRF-CEM leukemia)	TGI (CCRF-CEM leukemia)	GI50 (A498 renal)	TGI (A498 renal)	GI50 (UO-31 renal)	TGI (UO-31 renal)
COc1ccc(C(=O)c2ccc(OC)c(OC)c2OC)cc1	1.76 µM	> 100 µM	0.465 µM	33.5 µM	2.76 µM	> 100 µM	0.351 µM	> 100 µM	3 µM	> 100 µM	0.697 µM	> 100 µM	4.51 µM	> 100 µM	1.46 µM	> 100 µM	1.08 µM	9.39 µM	4.65 µM	> 100 µM
CCCCCCCCCCCCCCCCCC1=NCCN1CS(=O)(=O)O	17.2 µM	44.9 µM	4.44 µM	19.9 µM	17 µM	34.4 µM	3.93 µM	> 100 µM	20.4 µM	48.9 µM	13.4 µM	35.2 µM	19.2 µM	34.7 µM	3.96 µM	> 100 µM	14.8 µM	31 µM	6.28 µM	23 µM
CC(=O)N1CC(Nc2ccc(OC(F)(F)F)cc2)=CC1=O	1.59 µM	7.59 µM	0.482 µM	28.6 µM	3.22 µM	53.2 µM	0.526 µM	> 100 µM	3.63 µM	> 100 µM	0.436 µM	> 100 µM	7.29 µM	> 100 µM	2.52 µM	> 100 µM	1.25 µM	24.2 µM	19.4 µM	> 100 µM
Cc1ccc(NC(=O)NC(=O)c2ccc([N+](=O)[O-])cc2[N+](=O)[O-])cc1Oc1ncc(Cl)cn1	–	2.4 µM	–	2.57 µM	–	0.619 µM	–	> 37.4 µM	–	6.7 µM	–	20.5 µM	–	24.1 µM	–	> 62.3 µM	–	22.2 µM	–	17.3 µM
CCCCCCCC/C=C/CCCCCCCC1=NCC[N+]1(CCO)CCO	2.39 µM	9.52 µM	1.38 µM	3.25 µM	3.67 µM	20.3 µM	1.52 µM	4.34 µM	2.66 µM	10 µM	3.94 µM	18.6 µM	9.71 µM	21.6 µM	1.6 µM	4.46 µM	2.21 µM	14.2 µM	3.97 µM	19.7 µM
C=C(C)[C@@H]1CC[C@]2(C)[C@H](C(=O)C=C3[C@@H]4C[C@](C)(C(=O)N5CCN(C)CC5)CC[C@]4(C)CC[C@]32C)[C@@]1(C)CCC#N	7.52 µM	15.8 µM	2.38 µM	8.49 µM	6.72 µM	13.6 µM	2.75 µM	9.55 µM	8.12 µM	16.2 µM	5.45 µM	12.5 µM	7.23 µM	13.8 µM	6.62 µM	16.3 µM	7.77 µM	14.9 µM	5.37 µM	11.3 µM
COc1cc(NCCCCN=C(N)NC(N)=NC(C)C)c2ncccc2c1	4.21 µM	17.3 µM	7.49 µM	32.2 µM	2.52 µM	14.2 µM	3.65 µM	25.8 µM	8.18 µM	27.7 µM	0.0516 µM	0.327 µM	12.1 µM	24.7 µM	4.57 µM	27.3 µM	28.5 µM	> 100 µM	99 µM	> 100 µM
COc1cc(C(=O)/C=C/c2cc(C(=O)c3cc(OC)c(OC)c(OC)c3)ccc2OC)ccc1N	1.16 µM	4.35 µM	0.422 µM	1.56 µM	1.27 µM	2.64 µM	0.386 µM	> 100 µM	0.846 µM	6.12 µM	0.322 µM	2.28 µM	1.36 µM	3.75 µM	0.35 µM	> 100 µM	2.14 µM	5.92 µM	0.762 µM	2.12 µM
O=P(O)(O)c1ccccc1 (tested in a mixture with another compound)	–	> 100 µM	–	> 100 µM	–	> 100 µM	–	> 100 µM	–	> 100 µM	–	> 100 µM	–	> 100 µM	–	> 100 µM	–	> 100 µM	–	> 100 µM
COc1cccc(C2C(C#N)=C(N)Oc3cc(N)ccc32)c1 (stereo unspecified)	0.293 µM	> 100 µM	0.36 µM	5.03 µM	0.82 µM	> 100 µM	0.396 µM	> 100 µM	0.649 µM	> 60.9 µM	0.314 µM	> 100 µM	0.663 µM	> 100 µM	0.32 µM	–	0.203 µM	–	0.858 µM	> 100 µM
CCn1c2c(n(CC)c1=S)-c1c(n(CC)c(=S)n1CC)SSSS2	–	26.6 µM	–	29.2 µM	–	49.4 µM	–	8.97 µM	–	23.3 µM	–	40.7 µM	–	18.7 µM	–	9.42 µM	–	63.8 µM	–	21.5 µM
CSc1cnn(CCC#N)c(=O)n1	–	> 100 µM	–	> 100 µM	–	> 100 µM	–	> 100 µM	–	> 100 µM	–	> 100 µM	–	> 100 µM	–	> 100 µM	–	> 100 µM	–	> 100 µM
Cc1cc2cc3cc(C)c(N(C)C)cc3nc2cc1N(C)C	2.35 µM	20.1 µM	1.55 µM	23.8 µM	3.61 µM	14.6 µM	4.79 µM	> 100 µM	2.83 µM	28.1 µM	1.76 µM	> 100 µM	2.8 µM	9.55 µM	8.99 µM	> 100 µM	4.32 µM	26.2 µM	6 µM	> 100 µM
CC(=O)c1c(C(F)(F)F)n([O-])c2ccc(Cl)cc2[n+]1=O	1.69 µM	8.38 µM	1.4 µM	> 100 µM	1.03 µM	2.41 µM	0.509 µM	3.52 µM	3.66 µM	20.4 µM	0.216 µM	–	1.97 µM	6.31 µM	0.0108 µM	2.22 µM	1.33 µM	2.88 µM	1.92 µM	–
